Experimental data taken from US4481191A, “Method for controlling blood pressure” (The Regents of the University of California, priority 1983, dated 1984).

How the values were obtained:
guinea pig ileum = conditions: cited from earlier work
mouse vas deferens = conditions: cited from earlier work
rats = conditions: administered intravenously (i.v.); Wei et al., Life Sciences; cited from earlier work
mice = conditions: studies with mice; cited from earlier work
[1] = synthetic product; cited from earlier work
[2] = test system: visceral afferent receptors; assay: Sensitivity to morphine sulfate-induced bradycardia after subcutaneous pretreatment (FIG. 1); assay type: in vivo, rat; conditions: rats; for effect of prior administration on sensitivity to morphine sulfate bradycardia (ED50 of morphine sulfate for greater than 10% fall in heart rate): subcutaneously 30 minutes before testing with morphine sulfate
Excerpt: Turning to FIG. 1, the ordinate thereof represents the ED50 of morphine sulfate for producing a greater than 10% fall in heart rate in rats, and serves as an index of the sensitivity of the animal to the drug. Morphine sulfate functions as a "challenge" drug for producing bradycardia, and is a traditional standard for comparison. Lower ED50 values mean that the visceral afferent receptors are more sensitive. The abscissa of FIG. 1 represents doses of dynorphin(1-13) and Leu-enkephalin, respectively, in units of micromoles per kg body weight administered subcutaneously 30 minutes before testing with morphine sulfate.
The experiments for which the data is illustrated by FIGS. 1 and 2 were conducted on male Sprague-Dawley rats weighing 250-350 g. Animals were kept under a 12-hour light-dark cycle with food and water available ad libitum. Each rat was used only once. Procedures of infusion of chemicals into the brain and for measurement of heart rate were as reported by Wei, et al., Life Science, supra, and Wei, J. Pharmacol. Exp. Ther. 21b: 12-18 (1981).
The median effective dose of drugs (ED50) for producing bradycardia was determined in animals anesthetized with 2.5% urethane solution in saline, administered 1.25 g/kg i.p. Drugs, dissolved in distilled water, were injected intravenously into a cannulated femoral vein in a volume of 0.05 ml/100 gm body weight delivered over a period of less than 3 seconds. The pH of the solutions ranged from 5.8 to 6.8 units. The blood pressure was obtained from the left cannulated carotid artery. A Narcobiosystems type 7302 cardiotachometer couple was used to integrate heart rate from the individual oscillations in blood pressure due to the heart beat, and heart rate was recorded on a polygraph recorder. The baseline heart rate (HR1) was defined as the lowest rate observed in the two minutes before drug administration. The magnitude of the change in heart rate was calculated as [(HR2 -HR1)/HR1 ]×100%, with the second heart rate (HR2) measured as the lowest rate observed in the three minutes after drug injection. […]

Substance	median effective dose (ED50) for lowering of heart rate and blood pressure (rats)	effect of prior administration on sensitivity to morphine sulfate bradycardia (ED50 of morphine sulfate for greater than 10% fall in heart rate) [2]	further results
Dynorphin			agonist properties (guinea pig ileum): potent agonist properties; agonist properties (mouse vas deferens): potent agonist properties
methionine-enkephalin	1.3 µmol/kg		
dynorphin(1-13)		enhances sensitivity	analgesia (mice): relatively weak in producing analgesia; potency in bioassays versus the naturally occurring peptide [1]: as potent in bioassays as the naturally occuring peptide; activity in enhancing sensitivity relative to Leu-enkephalin ([2]; subcutaneously 30 minutes before morphine sulfate): about 5 times
beta-endorphin: endogenous opioid peptide	0.07 µmol/kg		
Leu-enkephalin	1.5 µmol/kg	enhances sensitivity	
